Source: the NIST ThermoML archive (doi:10.1021/je7005743)
± gives the expanded uncertainty stated by the source.

How the values were obtained:
[1] = 298.15 K; 101.33 kPa; Liquid; Pycnometric method
[2] = excess molar enthalpy (molar enthalpy of mixing); xn = mol fraction of the nth substance listed; conditions: 303.15 K, 101 kPa, Liquid, Flow calorimetry

Compound: CC(C)CC(C)(C)C [2,2,4-trimethylpentane]
- mass density [1]: 687.91 ± 0.61 kg/m3

Compound: CC(C)CC(C)(C)C [2,2,4-trimethylpentane] + CCO
- excess molar enthalpy ([2]; x2 = 0.1291): 0.13 ± 0.00287 kcal/mol
- excess molar enthalpy ([2]; x2 = 0.2383): 0.152 ± 0.00335 kcal/mol
- excess molar enthalpy ([2]; x2 = 0.332): 0.158 ± 0.00335 kcal/mol
- excess molar enthalpy ([2]; x2 = 0.4132): 0.157 ± 0.00335 kcal/mol
- excess molar enthalpy ([2]; x2 = 0.4842): 0.153 ± 0.00335 kcal/mol
- excess molar enthalpy ([2]; x2 = 0.5469): 0.146 ± 0.00311 kcal/mol
- excess molar enthalpy ([2]; x2 = 0.6026): 0.138 ± 0.00311 kcal/mol
- excess molar enthalpy ([2]; x2 = 0.6525): 0.129 ± 0.00287 kcal/mol
- excess molar enthalpy ([2]; x2 = 0.6974): 0.12 ± 0.00263 kcal/mol
- excess molar enthalpy ([2]; x2 = 0.738): 0.11 ± 0.00239 kcal/mol
- excess molar enthalpy ([2]; x2 = 0.7749): 0.1 ± 0.00217 kcal/mol
- excess molar enthalpy ([2]; x2 = 0.8086): 0.0898 ± 0.00196 kcal/mol
- excess molar enthalpy ([2]; x2 = 0.8395): 0.0797 ± 0.00174 kcal/mol
- excess molar enthalpy ([2]; x2 = 0.8679): 0.069 ± 0.00153 kcal/mol
- excess molar enthalpy ([2]; x2 = 0.8942): 0.0582 ± 0.00129 kcal/mol
- excess molar enthalpy ([2]; x2 = 0.9185): 0.0473 ± 0.00108 kcal/mol
- excess molar enthalpy ([2]; x2 = 0.941): 0.0357 ± 0.000837 kcal/mol
- excess molar enthalpy ([2]; x2 = 0.962): 0.024 ± 0.000598 kcal/mol
- excess molar enthalpy ([2]; x2 = 0.9817): 0.012 ± 0.000359 kcal/mol

Compound: CCCCO [butan-1-ol]
- mass density [1]: 805.76 ± 0.72 kg/m3

Compound: CCC(C)O (centres undefined) [butan-2-ol]
- mass density [1]: 802.57 ± 0.72 kg/m3

Compound: CCO [ethanol]
- mass density [1]: 785.32 ± 0.71 kg/m3

Compound: CCCO [propan-1-ol]
- mass density [1]: 799.94 ± 0.72 kg/m3

Compound: CC(C)O [propan-2-ol]
- mass density [1]: 781.32 ± 0.7 kg/m3

Compound: C=COCCC [propyl vinyl ether]
- mass density [1]: 762.96 ± 0.69 kg/m3

Compound: C=COCCC [propyl vinyl ether] + CC(C)CC(C)(C)C
- excess molar enthalpy ([2]; x1 = 0.0715): 0.0253 ± 0.000621 kcal/mol
- excess molar enthalpy ([2]; x1 = 0.1398): 0.0464 ± 0.00105 kcal/mol
- excess molar enthalpy ([2]; x1 = 0.2052): 0.0635 ± 0.00141 kcal/mol
- excess molar enthalpy ([2]; x1 = 0.2678): 0.0775 ± 0.0017 kcal/mol
- excess molar enthalpy ([2]; x1 = 0.3278): 0.0878 ± 0.00194 kcal/mol
- excess molar enthalpy ([2]; x1 = 0.3853): 0.0954 ± 0.00208 kcal/mol
- excess molar enthalpy ([2]; x1 = 0.4406): 0.1 ± 0.0022 kcal/mol
- excess molar enthalpy ([2]; x1 = 0.4937): 0.103 ± 0.00225 kcal/mol
- excess molar enthalpy ([2]; x1 = 0.5448): 0.103 ± 0.00225 kcal/mol
- excess molar enthalpy ([2]; x1 = 0.5939): 0.101 ± 0.0022 kcal/mol
- excess molar enthalpy ([2]; x1 = 0.6413): 0.097 ± 0.00213 kcal/mol
- excess molar enthalpy ([2]; x1 = 0.6869): 0.0917 ± 0.00201 kcal/mol
- excess molar enthalpy ([2]; x1 = 0.7309): 0.0846 ± 0.00186 kcal/mol
- excess molar enthalpy ([2]; x1 = 0.7734): 0.0758 ± 0.00167 kcal/mol
- excess molar enthalpy ([2]; x1 = 0.8144): 0.0658 ± 0.00146 kcal/mol
- excess molar enthalpy ([2]; x1 = 0.854): 0.0547 ± 0.00122 kcal/mol
- excess molar enthalpy ([2]; x1 = 0.8923): 0.0418 ± 0.000956 kcal/mol
- excess molar enthalpy ([2]; x1 = 0.9294): 0.0277 ± 0.000669 kcal/mol
- excess molar enthalpy ([2]; x1 = 0.9653): 0.0138 ± 0.000382 kcal/mol

Compound: C=COCCC [propyl vinyl ether] + CCO
- excess molar enthalpy ([2]; x1 = 0.0265): 0.014 ± 0.000382 kcal/mol
- excess molar enthalpy ([2]; x1 = 0.0543): 0.0284 ± 0.000669 kcal/mol
- excess molar enthalpy ([2]; x1 = 0.0836): 0.0441 ± 0.001 kcal/mol
- excess molar enthalpy ([2]; x1 = 0.1145): 0.0602 ± 0.00134 kcal/mol
- excess molar enthalpy ([2]; x1 = 0.147): 0.0766 ± 0.0017 kcal/mol
- excess molar enthalpy ([2]; x1 = 0.1814): 0.0936 ± 0.00206 kcal/mol
- excess molar enthalpy ([2]; x1 = 0.2178): 0.111 ± 0.00239 kcal/mol
- excess molar enthalpy ([2]; x1 = 0.2564): 0.129 ± 0.00287 kcal/mol
- excess molar enthalpy ([2]; x1 = 0.2973): 0.146 ± 0.00311 kcal/mol
- excess molar enthalpy ([2]; x1 = 0.3409): 0.164 ± 0.00359 kcal/mol
- excess molar enthalpy ([2]; x1 = 0.3873): 0.179 ± 0.00382 kcal/mol
- excess molar enthalpy ([2]; x1 = 0.4368): 0.195 ± 0.0043 kcal/mol
- excess molar enthalpy ([2]; x1 = 0.4899): 0.209 ± 0.00454 kcal/mol
- excess molar enthalpy ([2]; x1 = 0.5468): 0.221 ± 0.00478 kcal/mol
- excess molar enthalpy ([2]; x1 = 0.608): 0.229 ± 0.00502 kcal/mol
- excess molar enthalpy ([2]; x1 = 0.6741): 0.233 ± 0.00502 kcal/mol
- excess molar enthalpy ([2]; x1 = 0.7456): 0.227 ± 0.00478 kcal/mol
- excess molar enthalpy ([2]; x1 = 0.8231): 0.207 ± 0.00454 kcal/mol
- excess molar enthalpy ([2]; x1 = 0.9076): 0.157 ± 0.00335 kcal/mol
